≈ marks a conversion by molar mass, not a printed value.
Tests used:
Klebsiella pneumoniae [1] = test: Antibacterial activity against porin, OmpA positive extended-spectrum beta-lactamase producing Klebsiella pneumoniae KPBj1 by disk agar diffusion method; format: functional
Klebsiella pneumoniae [2] = test: Antibacterial activity against porin, OmpA positive extended-spectrum beta-lactamase producing Klebsiella pneumoniae KPBj1 revertant by disk agar diffusion method; format: functional
Klebsiella pneumoniae [3] = test: Antibacterial activity against porin deficient OmpA positive extended-spectrum beta-lactamase producing Klebsiella pneumoniae KPBj1 revertant by disk agar diffusion method; format: functional
Klebsiella pneumoniae [4] = test: Antibacterial activity against porin, OmpA positive Klebsiella pneumoniae KPBj5 expressing efflux system by disk agar diffusion method; format: functional
Klebsiella pneumoniae [5] = test: Antibacterial activity against porin, OmpA positive Klebsiella pneumoniae ATCC 138821 by disk agar diffusion method; format: functional
Klebsiella pneumoniae [6] = test: Antibacterial activity against porin deficient OmpA positive Klebsiella pneumoniae KPBj3 revertant by disk agar diffusion method; format: functional
Klebsiella pneumoniae [7] = test: Antibacterial activity against porin deficient OmpA positive Klebsiella pneumoniae KPBj1 expressing efflux system by disk agar diffusion method; format: functional
Klebsiella pneumoniae [8] = test: Antibacterial activity against porin, OmpA positive Klebsiella pneumoniae KPBj3 revertant by disk agar diffusion method; format: functional
Klebsiella pneumoniae [9] = test: microbe, parasite or virus in culture; conditions: KPBj1
Description: Antibacterial activity against porin deficient OmpA positive extended-spectrum beta-lactamase producing Klebsiella pneumoniae KPBj1 expressing efflux system by disk agar diffusion method

Klebsiella pneumoniae [10] = test: Antibacterial activity against porin deficient OmpA positive Klebsiella pneumoniae KPBj3 expressing efflux system by disk agar diffusion method; format: functional
Klebsiella pneumoniae [11] = test: Antibacterial activity against porin deficient OmpA positive Klebsiella pneumoniae KPBj1 revertant by disk agar diffusion method; format: functional
Klebsiella pneumoniae [12] = test: Antibacterial activity against porin, OmpA positive Klebsiella pneumoniae KPBj3 expressing efflux system by disk agar diffusion method; format: functional
Klebsiella pneumoniae [13] = test: Antibacterial activity against porin, OmpA positive Klebsiella pneumoniae KPBj1 revertant by disk agar diffusion method; format: functional
Klebsiella pneumoniae [14] = test: Antibacterial activity against porin, OmpA positive Klebsiella pneumoniae KPBj5 revertant by disk agar diffusion method; format: functional
Klebsiella pneumoniae [15] = test: Antibacterial activity against porin deficient OmpA positive Klebsiella pneumoniae KPBj5 revertant by disk agar diffusion method; format: functional
Klebsiella pneumoniae [16] = test: Antibacterial activity against porin, OmpA positive Klebsiella pneumoniae KPBj1 expressing efflux system by disk agar diffusion method; format: functional
Klebsiella pneumoniae [17] = test: Antibacterial activity against porin deficient OmpA positive Klebsiella pneumoniae KPBj5 expressing efflux system by disk agar diffusion method; format: functional

SMILES	MIC (Klebsiella pneumoniae [1])	MIC (Klebsiella pneumoniae [2])	MIC (Klebsiella pneumoniae [3])	MIC (Klebsiella pneumoniae [4])	MIC (Klebsiella pneumoniae [5])	MIC (Klebsiella pneumoniae [6])	MIC (Klebsiella pneumoniae [7])	MIC (Klebsiella pneumoniae [8])	MIC (Klebsiella pneumoniae [9])	MIC (Klebsiella pneumoniae [10])	MIC (Klebsiella pneumoniae [11])	MIC (Klebsiella pneumoniae [12])	MIC (Klebsiella pneumoniae [13])	MIC (Klebsiella pneumoniae [14])	MIC (Klebsiella pneumoniae [15])	MIC (Klebsiella pneumoniae [16])	MIC (Klebsiella pneumoniae [17])
C[C@@H](O)[C@H]1C(=O)N2C(C(=O)O)=C(S[C@@H]3CN[C@H](C(=O)Nc4cccc(C(=O)O)c4)C3)[C@H](C)[C@H]12	0.125 µg/mL (≈ 0.263 µM)	0.03 µg/mL (≈ 0.0631 µM)	2 µg/mL (≈ 4.21 µM)	0.015 µg/mL (≈ 0.0315 µM)	0.007 µg/mL (≈ 0.0147 µM)	0.25 µg/mL (≈ 0.526 µM)	0.5 µg/mL (≈ 1.05 µM)	0.007 µg/mL (≈ 0.0147 µM)	4 µg/mL (≈ 8.41 µM)	0.25 µg/mL (≈ 0.526 µM)	0.5 µg/mL (≈ 1.05 µM)	0.007 µg/mL (≈ 0.0147 µM)	0.007 µg/mL (≈ 0.0147 µM)	0.007 µg/mL (≈ 0.0147 µM)	0.25 µg/mL (≈ 0.526 µM)	0.007 µg/mL (≈ 0.0147 µM)	0.25 µg/mL (≈ 0.526 µM)
CO/N=C(\C(=O)N[C@@H]1C(=O)N2C(C(=O)O)=C(COC(C)=O)CS[C@H]12)c1csc(N)n1 [CEFOTAXIME]	128 µg/mL (≈ 281 µM)	128 µg/mL (≈ 281 µM)	256 µg/mL (≈ 562 µM)	0.125 µg/mL (≈ 0.274 µM)	0.06 µg/mL (≈ 0.132 µM)	0.25 µg/mL (≈ 0.549 µM)	0.25 µg/mL (≈ 0.549 µM)	0.06 µg/mL (≈ 0.132 µM)	256 µg/mL (≈ 562 µM)	0.25 µg/mL (≈ 0.549 µM)	0.25 µg/mL (≈ 0.549 µM)	0.06 µg/mL (≈ 0.132 µM)	0.06 µg/mL (≈ 0.132 µM)	0.06 µg/mL (≈ 0.132 µM)	0.125 µg/mL (≈ 0.274 µM)	0.125 µg/mL (≈ 0.274 µM)	0.25 µg/mL (≈ 0.549 µM)
CC(C)(O/N=C(\C(=O)N[C@@H]1C(=O)N2C(C(=O)[O-])=C(C[n+]3ccccc3)CS[C@H]12)c1csc(N)n1)C(=O)O [CEFTAZIDIME]	32 µg/mL (≈ 58.5 µM)	16 µg/mL (≈ 29.3 µM)	32 µg/mL (≈ 58.5 µM)	0.25 µg/mL (≈ 0.457 µM)	0.125 µg/mL (≈ 0.229 µM)	0.25 µg/mL (≈ 0.457 µM)	0.125 µg/mL (≈ 0.229 µM)	0.125 µg/mL (≈ 0.229 µM)	32 µg/mL (≈ 58.5 µM)	0.25 µg/mL (≈ 0.457 µM)	0.125 µg/mL (≈ 0.229 µM)	0.25 µg/mL (≈ 0.457 µM)	0.125 µg/mL (≈ 0.229 µM)	0.125 µg/mL (≈ 0.229 µM)	0.125 µg/mL (≈ 0.229 µM)	0.25 µg/mL (≈ 0.457 µM)	0.25 µg/mL (≈ 0.457 µM)
CO[C@@]1(NC(=O)Cc2cccs2)C(=O)N2C(C(=O)O)=C(COC(N)=O)CS[C@@H]21 [CEFOXITIN]	8 µg/mL (≈ 18.7 µM)	2 µg/mL (≈ 4.68 µM)	32 µg/mL (≈ 74.9 µM)	8 µg/mL (≈ 18.7 µM)	2 µg/mL (≈ 4.68 µM)	32 µg/mL (≈ 74.9 µM)	32 µg/mL (≈ 74.9 µM)	2 µg/mL (≈ 4.68 µM)	32 µg/mL (≈ 74.9 µM)	32 µg/mL (≈ 74.9 µM)	32 µg/mL (≈ 74.9 µM)	4 µg/mL (≈ 9.36 µM)	2 µg/mL (≈ 4.68 µM)	2 µg/mL (≈ 4.68 µM)	16 µg/mL (≈ 37.4 µM)	8 µg/mL (≈ 18.7 µM)	32 µg/mL (≈ 74.9 µM)
O=C(N[C@H](CO)[C@H](O)c1ccc([N+](=O)[O-])cc1)C(Cl)Cl [CHLORAMPHENICOL]	128 µg/mL (≈ 396 µM)	2 µg/mL (≈ 6.19 µM)	4 µg/mL (≈ 12.4 µM)	8 µg/mL (≈ 24.8 µM)	2 µg/mL (≈ 6.19 µM)	4 µg/mL (≈ 12.4 µM)	128 µg/mL (≈ 396 µM)	4 µg/mL (≈ 12.4 µM)	128 µg/mL (≈ 396 µM)	128 µg/mL (≈ 396 µM)	4 µg/mL (≈ 12.4 µM)	128 µg/mL (≈ 396 µM)	2 µg/mL (≈ 6.19 µM)	2 µg/mL (≈ 6.19 µM)	2 µg/mL (≈ 6.19 µM)	128 µg/mL (≈ 396 µM)	8 µg/mL (≈ 24.8 µM)
C[C@H]1COc2c(N3CCN(C)CC3)c(F)cc3c(=O)c(C(=O)O)cn1c23.C[C@H]1COc2c(N3CCN(C)CC3)c(F)cc3c(=O)c(C(=O)O)cn1c23.O [LEVOFLOXACIN]	–	0.03 µg/mL	0.06 µg/mL	–	0.03 µg/mL	0.015 µg/mL	–	0.03 µg/mL	–	–	0.06 µg/mL	–	0.03 µg/mL	0.06 µg/mL	0.06 µg/mL	–	–
CCn1cc(C(=O)O)c(=O)c2ccc(C)nc21 [NALIDIXIC ACID]	32 µg/mL (≈ 138 µM)	4 µg/mL (≈ 17.2 µM)	4 µg/mL (≈ 17.2 µM)	8 µg/mL (≈ 34.4 µM)	4 µg/mL (≈ 17.2 µM)	2 µg/mL (≈ 8.61 µM)	32 µg/mL (≈ 138 µM)	2 µg/mL (≈ 8.61 µM)	32 µg/mL (≈ 138 µM)	32 µg/mL (≈ 138 µM)	2 µg/mL (≈ 8.61 µM)	32 µg/mL (≈ 138 µM)	2 µg/mL (≈ 8.61 µM)	2 µg/mL (≈ 8.61 µM)	2 µg/mL (≈ 8.61 µM)	32 µg/mL (≈ 138 µM)	8 µg/mL (≈ 34.4 µM)

Reference: ChEMBL document CHEMBL1687777, “Membrane efflux and influx modulate both multidrug resistance and virulence of Klebsiella pneumoniae in a Caenorhabditis elegans model” (2010)
